{"source": "paper PMC11939361", "about": "“diAcCA, a Pro-Drug for Carnosic Acid That Activates the Nrf2 Transcriptional Pathway, Shows Efficacy in the 5xFAD Transgenic Mouse Model of Alzheimer’s Disease” (Antioxidants, 2025)", "key": {"[1]": {"assay": "Shelf life / stability of the compound over time", "assay_type": "physicochemical", "conditions": "storage (CA: even if kept in the dark and cold)"}, "[2]": {"system": "hiPSC-derived microglia (hiMG)", "assay": "hiMG transplanted into humanized mouse brain, inflammatory markers", "assay_type": "in vivo, human", "description": "The next day, immunostaining was performed on brain sections after 3 washes in PBS and incubation in the appropriate secondary antibody solution on a shaker for 2 h at room temperature. Secondary antibodies included Alexa 488 (A11008, 1:500, goat anti-rabbit, Life Technologies, Carlsbad, CA, USA) and Alexa 555 (A21424, 1:500, goat anti-mouse, Life Technologies). The sections were again washed with PBS 3 times, mounted on Superfrost plus slides (12-550-15, Fisher Scientific, Waltham, MA, USA) and dried at room temperature. […] For each brain, 3–6 images were acquired for each individual marker using a confocal fluorescence microscope (Nikon Eclipse Ti2) (Figure 1, Figure 2 and Figure 3, Supplementary Figure S1). Post image processing, quantification was performed using Fiji ImageJ (1.54f). For the Iba1-stained slides, a mask was made of cells co-labeled for HuNu and Iba1, and then caspase 1 staining was measured. […] For quantification, NeuN, Synapsin I, and GFAP staining were compared between groups by mean fluorescence intensity (MFI), Iba1 and caspase-1 staining was compared by integrated density (ID), Aβ and pTau staining were compared by % area of plaques/aggregates, as previously described. […]"}, "[3]": {"conditions": "in vivo; for AUC%Extrap: mouse", "protocol": "(§1) We tested both CA and diAcCA compounds by oral gavage/PO at 10 mg/kg. Analysis was performed by LC-MS in the Scripps Florida Drug Development Core (Jupiter, FL, USA). The compounds were formulated in olive oil. CA went into the oil with minimal stirring, but diAcCA required longer stirring. Blood was collected in hematocrit tubes and centrifuged. […] Drug is therefore likely absorbed via enterocyte passage and through chylomicron absorbance, complicating the early time points of the PK curves.\n(§2) Therefore, we decided to pre-weigh the CA into a vial and, in the vivarium, rapidly dissolve the compound in DMSO and then add Tween80/saline. The compound was dosed within five minutes of being dissolved, and the final concentrations were 5% DMSO and 95% of a 5% Tween80 solution in saline. […] Oral clearance calculations assume 100% bioavailability.\n(§3) We also determined the stability and bioavailability of diAcCA compared to CA. For this purpose, individual mice were administered CA or diAcCA IV or via oral gavage/PO. For CA, the doses were 3 mg/kg for the IV route and 10 mg/kg for oral gavage/PO, and for diAcCA 10 mg/kg by oral gavage/PO."}, "in vivo": {"assay": "in vivo", "conditions": "for AUC(0-inf): AUCINF_obs; for AUC(0-t): AUClast", "protocol": "as §1, §2, §3"}, "[4]": {"conditions": "cited from earlier work"}, "[5]": {"conditions": "cited from earlier work", "remark": "listed apart in the source"}, "[6]": {"conditions": "male, C57Bl/6, mouse, po, 10 mg/kg"}, "[7]": {"conditions": "mouse, po, 10 mg/kg, Plasma concentration of carnosic acid"}}, "note": "Values joined by “and” are separate entries in the source; they are usually repeats but may differ in a detail not shown here. Equal entries are not always repeated. “Also recorded” adds a separate entry of the source. Where two headings read alike, the source gives them in different places.", "data": [{"molecule": "CC(C)c1cc2c(c(O)c1O)[C@@]1(C(=O)O)CCCC(C)(C)[C@@H]1CC2", "note": "[CA, carnosic acid]", "values": [{"measurement": "shelf life / stability over time", "setting": "[1]", "value": "shelf life of only a couple of months"}, {"measurement": "inflammatory response (Iba1 and caspase-1 expression) of transplanted hiMG", "setting": "[2]; hiMG activated by α-synuclein/Aβ aggregates with or without cognate antibodies, pretreated with CA (2 µM), 2 weeks after transplantation", "value": "significantly prevented this inflammatory reaction; also recorded: prevented this effect"}, {"measurement": "cleaved/activated caspase-1 integrated density (ID)", "setting": "[2]; response to α-synuclein/Aβ aggregates in the presence of CA (2 µM), p = 0.0307", "value": "significant decrease"}, {"measurement": "Calculated Concentration of carnosic acid in plasma", "setting": "[3]; C57Bl/6, mouse, po, 6 h", "value": 618, "unit": "ng/mL"}, {"measurement": "CL*F", "setting": "[3]; [6]", "value": 2.7}, {"measurement": "AUC%Extrap", "setting": "[3]; iv, 3 mg/kg", "value": 1.77, "unit": "%"}, {"measurement": "AUC%Extrap", "setting": "[3]; po, 10 mg/kg", "value": 4.13, "unit": "%"}, {"measurement": "AUC(0-inf)", "setting": "in vivo; male, C57Bl/6, mouse, iv, 3 mg/kg", "value": 15000, "unit": "ng·h/mL"}, {"measurement": "clearance", "setting": "in vivo; male, C57Bl/6, mouse, iv, 3 mg/kg, Cl_obs", "value": 3.3, "unit": "mL/min/kg"}, {"measurement": "MRT inf", "setting": "in vivo; male, C57Bl/6, mouse, iv, 3 mg/kg, MRTINF_obs", "value": 5.46, "unit": "h"}, {"measurement": "half-life", "setting": "in vivo; male, C57Bl/6, mouse, iv, 3 mg/kg, T1/2", "value": 13, "unit": "h"}, {"measurement": "AUC(0-inf)", "setting": "in vivo; [6]", "value": 10700, "unit": "ng·h/mL"}, {"measurement": "bioavailability", "setting": "in vivo; male, C57Bl/6, mouse, po, 10 mg/kg, F%", "value": 16, "unit": "%"}, {"measurement": "half-life", "setting": "in vivo; male, C57Bl/6, mouse, po, 10 mg/kg, T1/2", "value": 19.9, "unit": "h"}, {"measurement": "AUC(0-inf)", "setting": "in vivo; mouse, iv, 3 mg/kg", "value": 20100, "unit": "ng·h/mL"}, {"measurement": "AUC(0-t)", "setting": "in vivo; mouse, iv, 3 mg/kg", "value": 59.5, "unit": "µM·h"}, {"measurement": "half-life", "setting": "in vivo; mouse, iv, 3 mg/kg, t1/2", "value": 11.9, "unit": "h"}, {"measurement": "Tmax", "setting": "in vivo; mouse, iv, 3 mg/kg", "value": 0.14, "unit": "h"}, {"measurement": "Cmax", "setting": "in vivo; mouse, iv, 5 mg/kg, mean Cmax of CA in plasma", "value": 98.5, "unit": "µM"}, {"measurement": "half-life", "setting": "in vivo; mouse, iv, average half-life", "value": 11.9, "unit": "h"}, {"measurement": "half-life", "setting": "in vivo; mouse, iv, half-life", "value": "~12", "unit": "h"}, {"measurement": "AUC(0-inf)", "setting": "in vivo; mouse, po, 10 mg/kg", "value": 9710, "unit": "ng·h/mL"}, {"measurement": "AUC(0-t)", "setting": "in vivo; mouse, po, 10 mg/kg", "value": 28, "unit": "µM·h"}, {"measurement": "Cmax", "setting": "in vivo; mouse, po, 10 mg/kg, Cmax of CA in plasma", "value": 4.45, "unit": "µM"}, {"measurement": "concentration at 480 min", "setting": "in vivo; [7]", "value": "1 µM and 332 ng/mL"}, {"measurement": "concentration at 4320 min", "setting": "in vivo; [7]", "value": "64.4 nM and 21.4 ng/mL"}, {"measurement": "half-life", "setting": "in vivo; mouse, po, 10 mg/kg, average half-life", "value": 16.3, "unit": "h"}, {"measurement": "Cmax", "setting": "in vivo; mouse, po, 10 mg/kg, mean Cmax of CA", "value": 4.45, "unit": "µM"}, {"measurement": "half-life", "setting": "in vivo; mouse, po, 10 mg/kg, t1/2", "value": 16.3, "unit": "h"}, {"measurement": "Tmax", "setting": "in vivo; mouse, po, 10 mg/kg", "value": 1.5, "unit": "h"}, {"measurement": "LD50", "setting": "[4]", "value": 7100, "unit": "mg/kg"}, {"measurement": "brain levels as share of the plasma level at peak values", "setting": "[5]; PO and IV routes", "value": "approximately 10%"}, {"measurement": "CA concentration in the brain, which is neuroprotective", "setting": "[5]", "value": "1 to 2", "unit": "µM"}, {"measurement": "CA plasma concentration that produces the neuroprotective brain level", "setting": "[5]", "value": "10 to 20", "unit": "µM"}]}]}
